Tested on: cortical neurons
Experiment: Oxygen-glucose deprivation (OGD)/reoxygenation neuronal injury, LDH release
Type: cell-based
Conditions: rat cortical neurons, FIG. 1
Protocol: Cortical neurons (5×10^5 cells/ml) were isolated from fetal SD rats (16-17 days). Specifically, brain cortex was cut, and cells were isolated from the tissue by repeated trituration using a Pasteur pipette in buffer (Hanks' Balanced Salt Solution, HBSS). The cell suspension (1.8×10^3 cells/mm^2) was dispensed on a plate pretreated with poly-D-lysine ([…])/laminin ([…]). The cells were placed in 10% FBS-containing NBM medium, and incubated in a […]/5% CO2 atmosphere at 37° C. After 15-16 days of the incubation, the experiment was performed.
In order to induce hypoxic-ischemic symptoms in vitro, the incubated cells were placed in an anoxic chamber (partial oxygen pressure <2 mmHg). The cells were incubated glucose-free DMEM while being bubbled with an anaerobic gas mixture (95% N2 and 5% CO2) for 30 minutes to remove residual oxygen, and were incubated at 37° C. for 90 minutes for oxygen deprivation. After 90 minutes, the exposed solution was replaced with 25 mmol/L glucose-containing DMEM medium to stop the OGD reaction, and the cells were restored to normal oxygen conditions. Control cells not exposed to OGD were incubated in glucose (25 mmol/L)-containing DMEM medium provided with an aerobic gas mixture (95% air and 5% CO2). The cells were treated with each sample 30 minutes before, and during the entire period of OGD/re-oxygenation.
In order to measure cell injury or cell death, the amount of LDH released into the medium was measured using a cell viability measurement kit (Sigma-Aldrich, St. Louis, Mo.). Cell viability was expressed as the percentage of LDH relative to the total cellular LDH level measured in sister cultures lysed by freezing-thawing after the experiment.

Question: Which results are given for `COc1cc(C=CC2=CC(=O)[C@H]3C[C@@H]2C3(C)C)cc(O)c1O` [Compound 3f, (1S,5R)-4-(3,4-dihydroxy-5-methoxystyryl)-6,6-dimethylbicyclo[3.1.1]hept-3-en-2-one]?
Answer: neuronal injury induced by OGD (LDH release) (OGD/reoxygenation, comparable to MK801): significantly reduced neuronal injury; cytotoxicity: showed no cytotoxicity
